Measured values taken from patent publication US20260193271A1, “PAN-KRAS INHIBITOR COMPOUND” (ADLAI NORTYE BIOPHARMA CO., LTD., priority 2022, published 2026).

Legend:
[1] = test system: AsPC-1 (G12D); experiment: In vitro cell proliferation inhibition test (CellTiter-Glo), AsPC-1; type: cell-based; settings: KRAS (p.G12D), 72 h co-incubation
Method in brief: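 IC50 was derived by four-parameter fitting of normalized CellTiter-Glo signals. These were measured after 72 h co-incubation with compound at 10 concentrations, 3-fold serial, final maximum 10 μM. Plating was 1000-5000 cells/well, adjusted to growth rate, with overnight attachment at 37 °C, 5% CO2.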

[2] = test system: SW480 (G12V); experiment: In vitro cell proliferation inhibition test (CellTiter-Glo), SW480; type: cell-based; settings: SW480 colon cell line, KRAS (p.G12V), 72 h co-incubation
Excerpt: Test Example 1: In Vitro Cell Proliferation Inhibition Test
Due to the diversity of RAS mutations and in order to evaluate the activity of compounds in different RAS mutation cell lines, we selected KRAS^WT, KRAS^G12C, KRAS^G12D, KRAS^G12V and BRAF mutation cell lines (see the table below) for in vitro activity evaluation and screening of compounds.
Protocol: CellTiter-Glo® Cell Luminescent Viability Assay (Promega)
According to the doubling time of different cell lines, different numbers of cells (1000-5000 cells/well) were seeded in 96-well plates containing 180 μl of corresponding culture medium and cultured overnight in a cell culture incubator at 37° C. with 5% CO2. On the second day, the test compound was pre-diluted 3-fold with culture medium, with the highest concentration being 100 μM, for a total of 10 concentration gradients; then 20 μl of culture medium containing different concentrations of the compound was added to the cells in the 96-well plate to ensure that the final concentration of the compound was up to 10 μM, with 10 concentration gradients of 3-fold dilution. After the cells and compounds were co-incubated for 72 h, the 96-well plate was removed from the incubator and equilibrated at room temperature for 30 min. Then, 25 μl of CellTiter-Glo® Reagent was added to each well and mixed thoroughly. The mixture was incubated at room temperature for 10 min, and then 100 μl of the sample was transferred to a white 96-well plate (OptiPlate™-96, PerkinElmer). The […] signal value was read using a multi-function microplate reader (SpectraMax® i3x, Molecular devices). The signal values were then standardized, and the curve was fitted using a four-parameter regression equation to calculate the half maximal inhibitory concentration (IC50) of the compound on the cell line.

[3] = Homo sapiens, ASPC1, AsPC-1 pancreas cell line

| Compound | IC50 [1, 3] | IC50 ([2]; Homo sapiens) | IC50 ([1]; AsPC-1 pancreas cell line) | IC50 [2] |
| --- | --- | --- | --- | --- |
| (1r,2R,3S)-N-((63S,4S,Z)-1^1-(2,2-difluoroethyl)-1^2-(2-((S)-1-methoxyethyl)-5-(2-(morpholinomethyl)pyrimidin-5-yl)pyridin-3-yl)-10,10-dimethyl-5,7-dioxo-6^1,6^2,6^3,6^4,6^5,6^6-hexahydro-1^1H-8-oxa-2(4,2)-thiazola-1(5,3)-indola-6(1,3)-pyridazinacycloundecaphane-4-yl)-2,3-dimethylcyclopropane-1-carboxamide [Compound 48] | – | – | 0.54 nM | 0.51 nM |
| CCn1c(-c2cc(-c3cc(C4CCN(C)C4)on3)cnc2C(C)OC)c2c3cc(ccc31)-c1csc(n1)CC(NC(=O)C1C(C)C1C)C(=O)N1CCCC(N1)C(=O)OCC(C)(C)C2 [Compound 29′, (1r,2R,3S)-N-((6^3S,4S,Z)-1^1-ethyl-1^2-(2-((S)-1-methoxyethyl)-5-(5-((R)-1-methylpyrrolidin-3-yl)isoxazol-3-yl)pyridin-3-yl)-10,10-dimethyl-5,7-dioxo-6^1,6^2,6^3,6^4,6^5,6^6-hexahydro-1^1H-8-oxa-2(4,2)-thiazola-1(5,3)-indola-6(1,3)-pyridazinacycloundecaphane-4-yl)-2,3-dimethylcyclopropane-1-carboxamide] | – | – | 5.3 nM | 11.4 nM |
| CCn1c(-c2cc(-c3ccc(CN4CC[C@@H](F)C4)cn3)cnc2[C@H](C)OC)c2c3cc(ccc31)-c1csc(n1)C[C@H](NC(=O)[C@H]1C[C@@H]1C)C(=O)N1CCC[C@H](N1)C(=O)OCC(C)(C)C2 (atropisomer, axis not shown) [Compound 46, (1S,2S)-N-((6^3S,4S,Z)-1^1-ethyl-1^2-(5-(((R)-3-fluoropyrrolidin-1-yl)methyl)-6′-((S)-1-methoxyethyl)-[2,3′-bipyridin]-5′-yl)-10,10-dimethyl-5,7-dioxo-6^1,6^2,6^3,6^4,6^5,6^6-hexahydro-1^1H-8-oxa-2(4,2)-thiazola-1(5,3)-indola-6(1,3)-pyridazinacycloundecaphane-4-yl)-2-methylcyclopropane-1-carboxamide] | 6.1 nM | 4.1 nM | – | – |
| CCn1c(-c2cc(-c3cc4c(cn3)CN(C)C4)cnc2[C@H](C)OC)c2c3cc(ccc31)-c1csc(n1)C[C@H](NC(=O)[C@H]1C[C@@H]1C)C(=O)N1CCC[C@H](N1)C(=O)OCC(C)(C)C2 (atropisomer, axis not shown) [Compound 43, (1S,2S)-N-((6^3S,4S,Z)-1^1-ethyl-1^2-(2-((S)-1-methoxyethyl)-5-(2-methyl-2,3-dihydro-1H-pyrrolo[3,4-c]pyridin-6-yl)pyridin-3-yl)-10,10-dimethyl-5,7-dioxo-6^1,6^2,6^3,6^4,6^5,6^6-hexahydro-1^1H-8-oxa-2(4,2)-thiazola-1(5,3)-indola-6(1,3)-pyridazinacycloundecaphane-4-yl)-2-methylcyclopropane-1-carboxamide] | 17 nM | 3.8 nM | – | – |
| CCn1c(-c2cc(-c3cc([C@@H]4CCCN4C)on3)cnc2[C@H](C)OC)c2c3cc(ccc31)-c1csc(n1)C[C@H](NC(=O)[C@H]1C[C@@H]1C)C(=O)N1CCC[C@H](N1)C(=O)OCC(C)(C)C2 (atropisomer, axis not shown) [Compound 25, (1S,2S)-N-((6^3S,4S,Z)-1^1-ethyl-1^2-(2-((S)-1-methoxyethyl)-5-(5-((S)-1-methylpyrrolidin-2-yl)isoxazol-3-yl)pyridin-3-yl)-10,10-dimethyl-5,7-dioxo-6^1,6^2,6^3,6^4,6^5,6^6-hexahydro-1^1H-8-oxa-2(4,2)-thiazola-1(5,3)-indola-6(1,3)-pyridazinacycloundecaphane-4-yl)-2-methylcyclopropane-1-carboxamide] | 20 nM | 22 nM | – | – |

Other lines, results leading:

| IC50 [1, 3] | IC50 ([2]; Homo sapiens) | IC50 ([1]; AsPC-1 pancreas cell line) | IC50 [2] | Compound |
| --- | --- | --- | --- | --- |
| 2.6 nM | 1.6 nM | – | – | CCn1c(-c2cc(-c3cccc(CN(C)C)c3)cnc2[C@H](C)OC)c2c3cc(ccc31)-c1csc(n1)C[C@H](NC(=O)[C@H]1[C@H](C)[C@@H]1C)C(=O)N1CCC[C@H](N1)C(=O)OCC(C)(C)C2 (atropisomer, axis not shown) [Compound 4, (1r,2R,3S)-N-((6^3S,4S,Z)-1^2-(5-(3-((dimethylamino)methyl)phenyl)-2-((S)-1-methoxyethyl)pyridin-3-yl)-1^1-ethyl-10,10-dimethyl-5,7-dioxo-6^1,6^2,6^3,6^4,6^5,6^6-hexahydro-1^1H-8-oxa-2(4,2)-thiazola-1(5,3)-indola-6(1,3)-pyridazinacycloundecaphane-4-yl)-2,3-dimethylcyclopropane-1-carboxamide] |
| 0.18 nM | 0.33 nM | – | – | CCn1c(-c2cc(-c3ccc4c(c3)CCN(C)C4)cnc2[C@H](C)OC)c2c3cc(ccc31)-c1csc(n1)C[C@H](NC(=O)[C@H]1[C@H](C)[C@@H]1C)C(=O)N1CCC[C@H](N1)C(=O)OCC(C)(C)C2 (atropisomer, axis not shown) [Compound 3, (1r,2R,3S)-N-((6^3S,4S,Z)-1^1-ethyl-1^2-(2-((S)-1-methoxyethyl)-5-(2-methyl-1,2,3,4-tetrahydroisoquinolin-6-yl)pyridin-3-yl)-10,10-dimethyl-5,7-dioxo-6^1,6^2,6^3,6^4,6^5,6^6-hexahydro-1^1H-8-oxa-2(4,2)-thiazola-1(5,3)-indola-6(1,3)-pyridazinacycloundecaphane-4-yl)-2,3-dimethylcyclopropane-1-carboxamide] |
| 1 nM | 4.3 nM | – | – | CCn1c(-c2cc(-c3ncc(CN4CCS(=N)(=O)CC4)cn3)cnc2[C@H](C)OC)c2c3cc(ccc31)-c1csc(n1)C[C@H](NC(=O)[C@H]1C[C@@H]1C)C(=O)N1CCC[C@H](N1)C(=O)OCC(C)(C)C2 (atropisomer, axis not shown) [Compound 49, (1S,2S)-N-((6^3S,4S,Z)-1^1-ethyl-1^2-(5-(5-((1-imino-1-oxido-1λ^6-thiomorpholino)methyl)pyrimidin-2-yl)-2-((S)-1-methoxyethyl)pyridin-3-yl)-10,10-dimethyl-5,7-dioxo-6^1,6^2,6^3,6^4,6^5,6^6-hexahydro-1^1H-8-oxa-2(4,2)-thiazola-1(5,3)-indola-6(1,3)-pyridazinacycloundecaphane-4-yl)-2-methylcyclopropane-1-carboxamide] |
| 2.5 nM | 2 nM | – | – | CCn1c(-c2cc(-c3cccc(CN4CCOCC4)n3)cnc2[C@H](C)OC)c2c3cc(ccc31)-c1csc(n1)C[C@H](NC(=O)C1C[C@@H]1C)C(=O)N1CCC[C@H](N1)C(=O)OCC(C)(C)C2 (stereo partly drawn) [Compound 13, (1S,2S)-N-((6^3S,4S,Z)-1^1-ethyl-1^2-(6′-((S)-1-methoxyethyl)-6-(morpholinomethyl)-[2,3′-bipyridin]-5′-yl)-10,10-dimethyl-5,7-dioxo-6^1,6^2,6^3,6^4,6^5,6^6-hexahydro-1^1H-8-oxa-2(4,2)-thiazola-1(5,3)-indola-6(1,3)-pyridazinacycloundecaphane-4-yl)-2-methylcyclopropane-1-carboxamide] |
| 3.4 nM | 3 nM | – | – | CCn1c(-c2cc(-c3nc(C)n(C)n3)cnc2[C@H](C)OC)c2c3cc(ccc31)-c1csc(n1)C[C@H](NC(=O)[C@H]1C[C@@H]1C)C(=O)N1CCC[C@H](N1)C(=O)OCC(C)(C)C2 (atropisomer, axis not shown) [Compound 20, (1S,2S)-N-((6^3S,4S,Z)-1^2-(5-(4,5-dimethyl-4H-1,2,4-triazol-3-yl)-2-((S)-1-methoxyethyl)pyridin-3-yl)-1^1-ethyl-10,10-dimethyl-5,7-dioxo-6^1,6^2,6^3,6^4,6^5,6^6-hexahydro-1^1H-8-oxa-2(4,2)-thiazola-1(5,3)-indola-6(1,3)-pyridazinacycloundecaphane-4-yl)-2-methylcyclopropane-1-carboxamide] |
| 0.31 nM | 2.5 nM | – | – | CCn1c(-c2cc(-c3cnn(C4CN(C)C4)c3)cnc2[C@H](C)OC)c2c3cc(ccc31)-c1csc(n1)C[C@H](NC(=O)[C@H]1[C@H](C)[C@@H]1C)C(=O)N1CCC[C@H](N1)C(=O)OCC(C)(C)C2 (atropisomer, axis not shown) [Compound 17, (1r,2R,3S)-N-((6^3S,4S,Z)-1^1-ethyl-1^2-(2-((S)-1-methoxyethyl)-5-(1-(1-methylazetidin-3-yl)-1H-pyrazol-4-yl)pyridin-3-yl)-10,10-dimethyl-5,7-dioxo-6^1,6^2,6^3,6^4,6^5,6^6-hexahydro-1^1H-8-oxa-2(4,2)-thiazola-1(5,3)-indola-6(1,3)-pyridazinacycloundecaphane-4-yl)-2,3-dimethylcyclopropane-1-carboxamide] |
